Test results taken from ChEMBL document CHEMBL6103618, “Discovery of Novel Oxazolo[4,3-f]purine Derivatives as Antitumor Agents through PPIA Interaction” (J Med Chem, 2025).
The source made the active and inactive calls. The calls are words filed in the database; no cut-off is given here.

Tests used:
[1] = system: HeLa; experiment: Antiproliferative activity against human HeLa cells assessed as inhibition of cell viability incubated for 48 hrs by CCK8 assay; assay type: functional, cell-based
[2] = system: HCT-116; experiment: Antiproliferative activity against human HCT-116 cells assessed as inhibition of cell viability incubated for 48 hrs by CCK8 assay; assay type: functional, cell-based; conditions: HCT-116, 48 h
[3] = system: HCT-116; experiment: Induction of cell cycle arrest in human HCT-116 cells assessed as accumulation at G1 phase at 0.3 uM incubated for 48 hrs by PI staining based flow cytometry (reference value: 59.37 %); assay type: functional
[4] = system: HCT-116; experiment: Induction of cell cycle arrest in human HCT-116 cells assessed as accumulation at S phase at 0.3 uM incubated for 48 hrs by PI staining based flow cytometry (reference value: 34.55 %); assay type: functional
[5] = system: HCT-116; experiment: Induction of apoptosis in human HCT-116 cells assessed as early apoptotic cells at 0.3 uM incubated for 48 hrs by Annexin V-FITC/PI staining based flow cytometry (reference value: 1.12 %); assay type: functional
[6] = system: HCT-116; experiment: Induction of apoptosis in human HCT-116 cells assessed as late apoptotic cells at 0.3 uM incubated for 48 hrs by Annexin V-FITC/PI staining based flow cytometry (reference value: 1.55 %); assay type: functional
[7] = system: HCT-116; experiment: Induction of apoptosis in human HCT-116 cells assessed as necrotic cells at 0.3 uM incubated for 48 hrs by Annexin V-FITC/PI staining based flow cytometry (reference value: 1.15 %); assay type: functional
[8] = system: HCT-116; experiment: Induction of apoptosis in human HCT-116 cells assessed as early apoptotic cells at 0.6 uM incubated for 48 hrs by Annexin V-FITC/PI staining based flow cytometry (reference value: 1.12 %); assay type: functional
[9] = system: HCT-116; experiment: Induction of intracellular ROS generation in human HCT-116 cells at 1.2 uM in presence of NAC by flow cytometry; assay type: functional, cell-based
[10] = system: HCT-116; experiment: Induction of DNA damage in human HCT-116 cells assessed as increase in p53 level at 0.3 to 1.2 uM incubated for 48 hrs by Western blot analysis; assay type: functional, cell-based; conditions: dose 0.3-1.2 µM
[11] = system: HCT-116; experiment: Inhibition of colony formation in human HCT-116 cells at 1.2 uM in presence of NAC by crystal violet staining based analysis; assay type: functional, cell-based
[12] = system: HCT-116; experiment: Induction of apoptosis in human HCT-116 cells assessed as decrease in Bcl-2 level at 1.2 uM in presence of NAC by Western blot analysis; assay type: functional, cell-based
[13] = system: HCT-116; experiment: Induction of ER stress in human HCT-116 cells assessed as increase in PERK level at 0.3 to 1.2 uM by Western blot analysis; assay type: functional, cell-based; conditions: dose 0.3-1.2 µM
[14] = system: HCT-116; experiment: Induction of mitochondrial dysfunction in human HCT-116 cells at 1.2 uM in presence of NAC by JC-1 dye based analysis; assay type: functional, cell-based
[15] = system: HCT-116; experiment: Effect on VCP expression in human HCT-116 cells upto 6 uM incubated for 30 mins followed by pronase addition measured after 30 mins by DARTS assay; assay type: functional, cell-based
[16] = system: HCT-116; experiment: Effect on COTL1 expression in human HCT-116 cells upto 6 uM incubated for 30 mins followed by pronase addition measured after 30 mins by DARTS assay; assay type: functional, cell-based
[17] = system: HCT-116; experiment: Effect on SET expression in human HCT-116 cells upto 6 uM incubated for 30 mins followed by pronase addition measured after 30 mins by DARTS assay; assay type: functional, cell-based
[18] = system: HCT-116; experiment: Effect on SRSF7 expression in human HCT-116 cells upto 6 uM incubated for 30 mins followed by pronase addition measured after 30 mins by DARTS assay; assay type: functional, cell-based
[19] = system: HCT-116; experiment: Effect on HSPA1A expression in human HCT-116 cells upto 6 uM incubated for 30 mins followed by pronase addition measured after 30 mins by DARTS assay; assay type: functional, cell-based
[20] = system: HCT-116; experiment: Induction of apoptosis in human HCT-116 cells assessed as decrease in p-ERK1/2 level by Western blot analysis; assay type: functional, cell-based; conditions: dose 0.3-1.2 µM
[21] = system: HCT-116; experiment: Cytotoxicity against human HCT-116 cells harboring siNC assessed as inhibition of cell viability incubated for 48 hrs by CCK8 assay; assay type: functional, cell-based; conditions: HCT-116, 48 h
[22] = system: HCT-116; experiment: Inhibition of colony formation in human HCT-116 cells harboring siNC at 1.2 uM incubated for 48 hrs followed by fresh media replacement without compound on every 72 hrs for 14 days by crystal violet staining based analysis; assay type: functional, cell-based
[23] = system: HCT-116; experiment: Anti-migration activity in human HCT-116 cells harboring siNC at 1.2 uM incubated for 24 hrs by wound healing assay; assay type: functional, cell-based
[24] = system: HCT-116; experiment: Anti-proliferative activity against human HCT-116 cells harboring siNC assessed as decrease in p-p38 level at 1.2 uM by Western blot analysis; assay type: functional, cell-based
[25] = system: HCT-116; experiment: Anti-proliferative activity against human HCT-116 cells harboring siNC assessed as decrease in p-JNK level at 1.2 uM by Western blot analysis; assay type: functional, cell-based
[26] = system: HCT-116; experiment: Anti-proliferative activity against human HCT-116 cells harboring siPPIA-3 assessed as decrease in p-ERK1/2 level at 1.2 uM by Western blot analysis; assay type: functional, cell-based
[27] = system: HCT-116; experiment: Induction of apoptosis in human HCT-116 cells harboring siNC assessed as early apoptotic cells at 1.2 uM by Annexin V-FITC/PI staining based flow cytometry (reference value: 1.52 %); assay type: functional
[28] = system: HCT-116; experiment: Induction of apoptosis in human HCT-116 cells harboring siNC assessed as late apoptotic cells at 1.2 uM by Annexin V-FITC/PI staining based flow cytometry (reference value: 1.35 %); assay type: functional
[29] = system: HCT-116; experiment: Induction of apoptosis in human HCT-116 cells harboring siPPIA-3 assessed as late apoptotic cells at 1.2 uM by Annexin V-FITC/PI staining based flow cytometry (reference value: 3.44 %); assay type: functional
[30] = Acute toxicity in BALB/c mouse assessed as death rate at 180 mg/kg, ip measured for 14 days; assay type: organism-based; conditions: both, in vivo, time 14 day, read-out: Activity
[31] = system: CT26; experiment: Antitumor activity against mouse CT26 cells implanted in BALB/c mouse assessed as reduction in tumor weight administered intraperitoneally once daily for 14 days; assay type: functional; conditions: dose 15-45 mg/kg, route ip, time 14.0 day
[32] = Toxicity in BALB/c mouse implanted with mouse CT26 cells assessed as injury in heart at 15 to 45 mg/kg, ip qd treated for 14 days by H and E staining based analysis; assay type: organism-based; conditions: in vivo, 336 h, dose 15-45 mg/kg, time 14 day
[33] = Toxicity in BALB/c mouse implanted with mouse CT26 cells assessed as injury in spleen at 15 to 45 mg/kg, ip qd treated for 14 days by H and E staining based analysis; assay type: organism-based; conditions: in vivo, 336 h, dose 15-45 mg/kg, time 14 day
[34] = Toxicity in BALB/c mouse implanted with mouse CT26 cells assessed as injury in kidney at 15 to 45 mg/kg, ip qd treated for 14 days by H and E staining based analysis; assay type: organism-based; conditions: in vivo, 336 h, dose 15-45 mg/kg, time 14 day
[35] = Toxicity in BALB/c mouse implanted with mouse CT26 cells assessed as abnormality in heart at 15 to 45 mg/kg, ip qd treated for 14 days by H and E staining based analysis; assay type: organism-based; conditions: in vivo, 336 h, dose 15-45 mg/kg, time 14 day
[36] = Toxicity in BALB/c mouse implanted with mouse CT26 cells assessed as abnormality in lung at 15 to 45 mg/kg, ip qd treated for 14 days by H and E staining based analysis; assay type: organism-based; conditions: in vivo, 336 h, dose 15-45 mg/kg, time 14 day

With `C=C(C(=O)OC)N1c2nc(Cl)nc(Cl)c2N2C(c3ccccc3F)OC(C(=O)OCC)(C(=O)OCC)C12` (racemic) the IC50 [1] was 690 nM, the IC50 [2] was 510 nM and the Activity [3] was 65.85%. It also gave an Activity [4] of 27.89%, an Activity [5] of 11.7% and an Activity [6] of 3.56%. The Activity [7] was 1.8%, the Activity [8] was 14.8% and the Activity [9] was “inactive”. The Activity [10] was “Active”, the inhibition [11] was “inactive” and the Activity [12] was “inactive”. For the same compound, the Activity [13] was “Active”, the Activity [14] was “inactive” and the Activity [15] was “No effect”. The Activity [16] was “No effect”, the Activity [17] was “No effect” and the Activity [18] was “No effect”. The Activity [19] was “No effect”, the Activity [20] was “Dose-dependent-effect” and the IC50 [21] was 470 nM. The inhibition [22] was “Active”, the Activity [23] was “Active” and the Activity [24] was “Active”. The Activity [25] was “Active”, the Activity [26] was “inactive” and the Activity [27] was 16.8%. It also gave an Activity [28] of 4.87%, an Activity [29] of 3.25% and a mortality at 336 h [30] of 0%. The Activity [31] was “Dose-dependent-effect”, the Activity [32] was “Non-toxic” and the Activity [33] was “Non-toxic”. The Activity [34] was “Non-toxic”, the Activity [35] was “Non-toxic” and the Activity [36] was “Non-toxic”.
